From patent publication US8227418B2 (priority 2004, dated 2012)

Columns and labels:
[1] = tested on: anthrax LeTx cytolysis of RAW 264.7 cells
[2] = target: LF (anthrax lethal factor) (Bacillus anthracis, UniProt P15917); type: biochemical, B. anthracis
[3] = tested on: ERK and p38 MAPK phosphorylation in RAW 264.7 cells; type: cell-based, murine
[4] = tested on: cleavage of MKK3b by LF in RAW 264.7 macrophages; type: cell-based, murine
LeTx intoxication = tested on: LeTx intoxication; parameters: species or system Balb/c mice; conditions: mouse, in vivo, iv

| Substance | Prevention of LeTx toxicity by pre-treatment of macrophages [1] | Protection of RAW 264.7 cells 24 hrs after LeTx treatment [1] | Protection of RAW 264.7 cells against cytotoxicity by LeTx (co-treatment) [1] | Protection of RAW 264.7 cells from LeTx induced cytotoxicity under serum-supplemented conditions [1] | Inhibition of in vitro MKK3b proteolysis by LF [2] | Restoration of ERK and p38 phosphorylation inhibited by LeTx [3] | Inhibition of MKK3b cleavage in LeTx treated cells [4] | Protection of mice from LeTx intoxication (survival) (LeTx intoxication) |
| --- | --- | --- | --- | --- | --- | --- | --- | --- |
| HNP-1 | prevented LeTx toxicity in a HNP-1 dose dependent manner | protection was observed even 24 hrs after LeTx treatment | completely abolished cytotoxicity | still protected cells from LeTx induced cytotoxicity | proteolysis was efficiently inhibited | phosphorylation of these two MAPKs was restored | efficiently inhibited | – |
| HNP-2 (CYCRIPACIAGERRYGTCIYQGRLWAFCC; homo sapiens) | – | – | showed similar protection | – | – | – | – | – |
| LL-37 | – | – | did not display any significant effect | – | did not prevent cleavage of MKK3b | – | – | had no effect on LeTx toxicity |
| Magainin I | – | – | – | – | did not prevent cleavage of MKK3b | – | – | – |
